Reference: EPA's ToxValDB 9.5

Test system: Rattus norvegicus
Details: short-term, duration: 28 days, oral, gavage, Sprague-Dawley

O=S(=O)(O)C(F)(F)C(F)(F)C(F)(F)C(F)(F)F [Perfluorobutanesulfonic acid]
LOEL (F, Clinical chemistry_Alanine aminotransferase): 250 mg/kg-day
NOEL (F, Clinical chemistry_Albumin): 1000 mg/kg-day
NOEL (F, Clinical chemistry_Albumin/globulin ratio): 1000 mg/kg-day
LOEL (F, Clinical chemistry_Alkaline phosphatase): 500 mg/kg-day
LOEL (F, Clinical chemistry_Aspartate aminotransferase): 500 mg/kg-day
LOEL (F, Clinical chemistry_Cholesterol): 500 mg/kg-day
LOEL (F, Clinical chemistry_Direct bilirubin): 500 mg/kg-day
LOEL (F, Clinical chemistry_Free thyroxine): 62.6 mg/kg-day
NOEL (F, Clinical chemistry_Globulin): 1000 mg/kg-day
NOEL (F, Clinical chemistry_Sorbitol dehydrogenase): 1000 mg/kg-day
NOEL (F, Clinical chemistry_Testosterone): 1000 mg/kg-day
NOEL (F, Clinical chemistry_Thyroid stimulating hormone): 1000 mg/kg-day
LOEL (F, Clinical chemistry_Total bile acids): 250 mg/kg-day
LOEL (F, Clinical chemistry_Total bilirubin): 500 mg/kg-day
NOEL (F, Clinical chemistry_Total protein): 1000 mg/kg-day
LOEL (F, Clinical chemistry_Total thyroxine): 62.6 mg/kg-day
LOEL (F, Clinical chemistry_Total triiodothyronine): 62.6 mg/kg-day
NOEL (F, Clinical chemistry_Triglycerides): 1000 mg/kg-day
LOEL (F, Gene expression_Acox1): 250 mg/kg-day
LOEL (F, Gene expression_Cyp2b1): 62.6 mg/kg-day
LOEL (F, Gene expression_Cyp2b2): 62.6 mg/kg-day
LOEL (F, Gene expression_Cyp4a1): 62.6 mg/kg-day
NOEL (F, Hematology_Erythrocytes): 1000 mg/kg-day
NOEL (F, Hematology_Hematocrit): 1000 mg/kg-day
NOEL (F, Hematology_Hemoglobin): 1000 mg/kg-day
NOEL (F, Hematology_Leukocytes): 1000 mg/kg-day
LOEL (F, Hematology_Reticulocytes): 125 mg/kg-day
NOEL (F, Hematology_S. neutrophils): 1000 mg/kg-day
LOEL (F, Nonneoplastic effects_Bone marrow - Hypocellularity): 1000 mg/kg-day
LOEL (F, Nonneoplastic effects_Kidney - Papilla, necrosis): 1000 mg/kg-day
LOEL (F, Nonneoplastic effects_Liver - Hepatocyte, cytoplasmic alteration): 500 mg/kg-day
LOEL (F, Nonneoplastic effects_Liver - Hepatocyte, hypertrophy): 500 mg/kg-day
NOEL (F, Nonneoplastic effects_Liver - Hepatocyte, vacuolization cytoplasmic): 1000 mg/kg-day
LOEL (F, Nonneoplastic effects_Liver - Necrosis): 1000 mg/kg-day
LOEL (F, Nonneoplastic effects_Nose - Olfactory epithelium, degeneration): 125 mg/kg-day
LOEL (F, Nonneoplastic effects_Nose - Olfactory epithelium, hyperplasia): 250 mg/kg-day
LOEL (F, Nonneoplastic effects_Nose - Olfactory epithelium, inflammation, suppurative): 1000 mg/kg-day
LOEL (F, Nonneoplastic effects_Nose - Olfactory epithelium, necrosis): 1000 mg/kg-day
NOEL (F, Nonneoplastic effects_Spleen - Extramedullary hematopoiesis, decreased): 1000 mg/kg-day
NOEL (F, Nonneoplastic effects_Stomach, forestomach - Epithelium, hyperplasia): 1000 mg/kg-day
LOEL (F, Nonneoplastic effects_Thymus - Atrophy): 1000 mg/kg-day
LOEL (F, Organ weights_Heart - Absolute): 500 mg/kg-day
NOEL (F, Organ weights_Heart - Relative): 1000 mg/kg-day
LOEL (F, Organ weights_Liver - Absolute): 250 mg/kg-day
LOEL (F, Organ weights_Liver - Relative): 125 mg/kg-day
NOEL (F, Organ weights_Lung - Absolute): 1000 mg/kg-day
NOEL (F, Organ weights_Lung - Relative): 1000 mg/kg-day
NOEL (F, Organ weights_R. adrenal gland - Absolute): 1000 mg/kg-day
NOEL (F, Organ weights_R. adrenal gland - Relative): 1000 mg/kg-day
NOEL (F, Organ weights_R. kidney - Absolute): 1000 mg/kg-day
LOEL (F, Organ weights_R. kidney - Relative): 62.6 mg/kg-day
LOEL (F, Organ weights_Spleen - Absolute): 500 mg/kg-day
NOEL (F, Organ weights_Spleen - Relative): 1000 mg/kg-day
LOEL (F, Organ weights_Thymus - Absolute): 500 mg/kg-day
NOEL (F, Organ weights_Thymus - Relative): 1000 mg/kg-day
LOEL (F, Reproductive toxicity_Altered estrous cyclicity): 250 mg/kg-day
LOEL (F, Survival rates): 250 mg/kg-day
LOEL (F, body weight): 1000 mg/kg-day
LOEL (M, Clinical chemistry_Alanine aminotransferase): 500 mg/kg-day
NOEL (M, Clinical chemistry_Albumin): 1000 mg/kg-day
LOEL (M, Clinical chemistry_Albumin/globulin ratio): 62.6 mg/kg-day
LOEL (M, Clinical chemistry_Alkaline phosphatase): 250 mg/kg-day
LOEL (M, Clinical chemistry_Aspartate aminotransferase): 500 mg/kg-day
LOEL (M, Clinical chemistry_Cholesterol): 62.6 mg/kg-day
LOEL (M, Clinical chemistry_Direct bilirubin): 500 mg/kg-day
LOEL (M, Clinical chemistry_Free thyroxine): 62.6 mg/kg-day
LOEL (M, Clinical chemistry_Globulin): 62.6 mg/kg-day
LOEL (M, Clinical chemistry_Sorbitol dehydrogenase): 500 mg/kg-day
NOEL (M, Clinical chemistry_Testosterone): 1000 mg/kg-day
NOEL (M, Clinical chemistry_Thyroid stimulating hormone): 1000 mg/kg-day
LOEL (M, Clinical chemistry_Total bile acids): 500 mg/kg-day
NOEL (M, Clinical chemistry_Total bilirubin): 1000 mg/kg-day
LOEL (M, Clinical chemistry_Total protein): 62.6 mg/kg-day
LOEL (M, Clinical chemistry_Total thyroxine): 62.6 mg/kg-day
LOEL (M, Clinical chemistry_Total triiodothyronine): 62.6 mg/kg-day
LOEL (M, Clinical chemistry_Triglycerides): 500 mg/kg-day
LOEL (M, Gene expression_Acox1): 125 mg/kg-day
LOEL (M, Gene expression_Acyl-CoA oxidase): 250 mg/kg-day
LOEL (M, Gene expression_Cyp2b1): 62.6 mg/kg-day
LOEL (M, Gene expression_Cyp2b2): 62.6 mg/kg-day
LOEL (M, Gene expression_Cyp4a1): 62.6 mg/kg-day
LOEL (M, Hematology_Erythrocytes): 125 mg/kg-day
LOEL (M, Hematology_Hematocrit): 125 mg/kg-day
LOEL (M, Hematology_Hemoglobin): 125 mg/kg-day
NOEL (M, Hematology_Leukocytes): 1000 mg/kg-day
LOEL (M, Hematology_Reticulocytes): 125 mg/kg-day
NOEL (M, Hematology_S. neutrophils): 1000 mg/kg-day
LOEL (M, Nonneoplastic effects_Bone marrow - Hypocellularity): 1000 mg/kg-day
LOEL (M, Nonneoplastic effects_Kidney - Papilla, necrosis): 1000 mg/kg-day
LOEL (M, Nonneoplastic effects_Liver - Hepatocyte, cytoplasmic alteration): 500 mg/kg-day
LOEL (M, Nonneoplastic effects_Liver - Hepatocyte, hypertrophy): 125 mg/kg-day
NOEL (M, Nonneoplastic effects_Liver - Hepatocyte, vacuolization cytoplasmic): 1000 mg/kg-day
LOEL (M, Nonneoplastic effects_Liver - Necrosis): 1000 mg/kg-day
LOEL (M, Nonneoplastic effects_Nose - Olfactory epithelium, degeneration): 250 mg/kg-day
LOEL (M, Nonneoplastic effects_Nose - Olfactory epithelium, hyperplasia): 250 mg/kg-day
LOEL (M, Nonneoplastic effects_Nose - Olfactory epithelium, inflammation, suppurative): 1000 mg/kg-day
LOEL (M, Nonneoplastic effects_Nose - Olfactory epithelium, necrosis): 1000 mg/kg-day
NOEL (M, Nonneoplastic effects_Spleen - Extramedullary hematopoiesis, decreased): 1000 mg/kg-day
LOEL (M, Nonneoplastic effects_Stomach, forestomach - Epithelium, hyperplasia): 1000 mg/kg-day
LOEL (M, Nonneoplastic effects_Thymus - Atrophy): 1000 mg/kg-day
LOEL (M, Organ weights_Heart - Absolute): 500 mg/kg-day
LOEL (M, Organ weights_Heart - Relative): 500 mg/kg-day
LOEL (M, Organ weights_Liver - Absolute): 125 mg/kg-day
LOEL (M, Organ weights_Liver - Relative): 62.6 mg/kg-day
NOEL (M, Organ weights_Lung - Absolute): 1000 mg/kg-day
NOEL (M, Organ weights_Lung - Relative): 1000 mg/kg-day
NOEL (M, Organ weights_R. adrenal gland - Absolute): 1000 mg/kg-day
NOEL (M, Organ weights_R. adrenal gland - Relative): 1000 mg/kg-day
LOEL (M, Organ weights_R. kidney - Absolute): 500 mg/kg-day
LOEL (M, Organ weights_R. kidney - Relative): 500 mg/kg-day
NOEL (M, Organ weights_Spleen - Absolute): 1000 mg/kg-day
NOEL (M, Organ weights_Spleen - Relative): 1000 mg/kg-day
LOEL (M, Organ weights_Thymus - Absolute): 500 mg/kg-day
LOEL (M, Organ weights_Thymus - Relative): 500 mg/kg-day
NOEL (M, Reproductive toxicity_Altered sperm parameters): 1000 mg/kg-day
LOEL (M, Survival rates): 1000 mg/kg-day
LOEL (M, body weight): 1000 mg/kg-day
